Test [1] deals with endogenous TMEM16A. Kind of test: Iodide quenching of YFP in HT29 cells stimulated with ionomycin. It counts as cell-based. As for the experimental part: FIG. 15: Inhibition of TMEM16A and TMEM16F by niclosamide. • A) TMEM16A whole cell currents in overexpressing HEK293 cells. […] Rate of YFP quenching (arbitrary units (au/second), when applying 20 mM iodide to the extracellular bath solution. HT29 cells stably overexpressing YFP were stimulated with […] ionomycin. 100,000 cells were seeded/well. Mean±SEM; (number of experiments) #significant inhibition when compared to the absence of the inhibitor (p<0.05; unpaired t-test); *significant activation by UTP (paired t-test).
Similar to TMEM16A, also overexpressed TMEM16F was inhibited by niclosamide (FIG. 15D). The effect of niclosamide was also examined on endogenous TMEM16A expressed in HT29 colonic carcinoma cells, which were stably transfected with iodide-sensitive yellow fluorescent protein (YFP). TMEM16A was activated by ionomycin and TMEM16A currents were measured as iodide quenching.

The test system of test [2] is Calu3 human airway epithelial cells. Briefly: IL-13 induced MUC5AC expression in Calu3 cells. In kind it is cell-based. The settings on record: IL-13 stimulation. The protocol: Mouse models were performed according to the previous example. For investigating mucus, IL-8 release, and leukocytes, tissues were fixed using 4% paraformaldehyde (PFA), 0.2% picric acid and 3.4% sucrose in PBS and washed in methanol before embedding in paraffin. Mucus was analyzed using standard Periodic acid-Schiff (PAS) or alcian blue staining. MUC5AC was stained using anti-MUC5AC mouse antibody (1:200, Abcam, ab3649) and a secondary antibody conjugated with Alexa488 (Life Technologies, A-21206). Nuclei were stained with Hoe33342 (0.1 μg/ml PBS, Aplichem, Darmstadt, Germany). Quantikine ELISA kits (R&D systems) were used to measure secretion of the cytokine IL-8 by Calu3 cells.
Calu3 airway epithelial cells were exposed to LPS for 48 hrs and the release of the neutrophil attractor interleukin 8 (IL-8) was measured. […] Upon stimulation with the Th2 cytokine IL-13, Calu3 cells produced MUC5AC. […] Taken together, airway epithelial knockout of TMEM16A caused a defect in mucus secretion, while mucus production was retained (FIG. 16C).

Test [3] concerns excised wt colon. Briefly: Acute mucus secretion in in vitro perfused excised colon, niclosamide in perfusate. Details: species or system mouse. The conditions noted are these: niclosamide 10 μM in perfusate. The text has this: Cholinergic stimulation released mucus from freshly isolated TMEM16A+/+ and TMEM16A−/− intestine (FIG. 6D-F). Mucus release was examined in more detail by perfusing freshly excised colon and collecting released mucus in vitro. For in vitro perfusion of intestines, mice were sacrificed and excised intestines were placed immediately in ice-cold Ringer solution and carefully flushed to remove residual luminal contents. The intestinal segments were mounted and perfused vertically in a custom-designed perfusion chamber with a constant temperature.
It was examined whether TMEM16F is also important for intestinal mucus secretion and acute mucus release was measured in freshly excised colonic segments mounted in a vertical custom-designed perfusion chamber at 37° C. and 24 mmol/1 HCO3^−/5% CO2. Secretion of mucus was induced by basolateral perfusion with methacholine (MCh) and by luminal perfusion of ATP. […]
It was examined whether niclosamide inhibits intestinal mucus secretion. […] The present inventors detected reduced Ca^2+ increase upon ATP-stimulation of freshly isolated crypt cells from Vil1-Cre TMEM16F^flox/flox mice. […] Increase in FM4-64 fluorescence in the plasma membrane is a marker for membrane exocytosis. The present inventors detected that ATP-stimulation (but not cholinergic stimulation) of HEK293 cells expressing TMEM16F induced FM4-64 fluorescence, i.e. exocytosis.

Test [4] has as its system mice homozygous for the cystic fibrosis mutation CFTR^deltaF508/deltaF508. In kind it is in vivo. The conditions noted are these: 13 mg/kg/day intraperitoneally for 7 days, in corn oil; vs sham. As for the experimental part:
Animals were treated for 7 days and subsequently sacrificed. Jejunum was excised, fixed in Carnoy Solution and embedded in paraffin.

For `O=C(Nc1ccc([N+](=O)[O-])cc1Cl)c1cc(Cl)ccc1O` [niclosamide, 5-chloro-N-(2-chloro-4-nitrophenyl)-2-hydroxybenzamide], in test [1] (HT29 YFP iodide quenching), the “potency compared with CaCCinhAO1 or dichlorophen” value was “more potent”. In addition, the “inhibition of endogenous TMEM16A (iodide quenching of YFP)” value in test [1] (HT29 cells stably expressing YFP, ionomycin, 20 mM iodide) is on record as “low nanomolar range”. For the same compound, the Muc5AC-expression result in test [2] was “largely reduced”. Moreover, in test [3], the “mucus secretion activated by basolateral MCh” value was “not” and the “mucus secretion activated by luminal ATP” value was “clearly inhibited”. In test [4], the jejunal diameters entry was “smaller” and the “mucus in jejunum (alcian blue)” value is on record as “largely reduced”.

Values taken from patent US20210283110A1, “COMPOUND FOR USE IN THE TREATMENT OF A DISEASE CHARACTERIZED BY DYSREGULATED MUCUS PRODUCTION AND/OR SECRETION” (UNIVERSITÄT REGENSBURG, priority 2018, published 2021).
